Laboratory results published in patent EP1103545B1, “2-(3,5-Bis-trifluoromethyl-phenyl)-N-methyl-N-(6-morpholin-4-yl-4-o-tolyl-pyridin-3-yl)-isobutyramide” (F. HOFFMANN-LA ROCHE AG, priority 1999, dated 2001).

What was measured:
[1] = biological target: T1, recombinant human NK1 receptor (Homo sapiens, UniProt P25103); assay: Substance P induced Ca2+ influx in CHO cells (FLIPR), Schild analysis; assay type: cell-based
T1 construct: expressed in transfected cells; host or cells: CHO cells
Excerpt: The activity in vitro was examined by studying its effect on substance P induced Ca^2+ influxes in CHO cells expressing the recombinant human NK1 receptor. In these cells, substance P causes a concentration dependent influx of Ca^2+ which can be measured using FLIPR technology.

[2] = tested on: foot-tapping behaviour induced in Gerbils; assay: Foot-tapping behaviour induced by i.c.v. injection of an NK1 receptor agonist; assay type: in vivo
emesis induced in Ferets = assay: Emesis induced by various emetogens; assay type: in vivo
[3] = tested on: motion sickness in the suncus murinus; assay: Model of motion sickness; assay type: in vivo; conditions: po
NK2 receptors = NK2 receptors (Homo sapiens, UniProt P21452); conditions: binding
NK3 receptors = NK3 receptors (Homo sapiens, UniProt P29371); conditions: binding
NK3 receptors, sequence (P29371 whole entry): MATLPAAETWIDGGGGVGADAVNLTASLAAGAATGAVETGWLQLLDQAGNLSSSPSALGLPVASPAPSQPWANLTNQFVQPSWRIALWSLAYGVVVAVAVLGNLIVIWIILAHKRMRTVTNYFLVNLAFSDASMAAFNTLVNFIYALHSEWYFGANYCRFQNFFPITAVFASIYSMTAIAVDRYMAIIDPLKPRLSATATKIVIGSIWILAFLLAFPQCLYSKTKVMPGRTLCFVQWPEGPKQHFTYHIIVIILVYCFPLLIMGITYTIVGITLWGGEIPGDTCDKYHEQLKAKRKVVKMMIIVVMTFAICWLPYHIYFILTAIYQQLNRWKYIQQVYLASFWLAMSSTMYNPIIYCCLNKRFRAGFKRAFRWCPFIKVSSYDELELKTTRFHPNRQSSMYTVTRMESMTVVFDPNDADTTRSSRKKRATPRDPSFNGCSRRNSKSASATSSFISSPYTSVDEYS

T1 sequence (P25103 whole entry): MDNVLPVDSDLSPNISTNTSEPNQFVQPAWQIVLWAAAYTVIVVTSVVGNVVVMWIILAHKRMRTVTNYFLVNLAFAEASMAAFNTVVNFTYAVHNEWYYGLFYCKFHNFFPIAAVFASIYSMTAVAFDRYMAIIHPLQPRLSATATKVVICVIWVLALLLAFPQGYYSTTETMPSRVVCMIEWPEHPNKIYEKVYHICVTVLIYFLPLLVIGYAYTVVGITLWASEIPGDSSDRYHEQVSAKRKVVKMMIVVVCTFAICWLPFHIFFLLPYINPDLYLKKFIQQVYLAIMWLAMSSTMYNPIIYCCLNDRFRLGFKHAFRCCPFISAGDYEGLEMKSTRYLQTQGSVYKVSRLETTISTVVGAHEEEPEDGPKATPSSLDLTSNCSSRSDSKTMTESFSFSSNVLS
NK2 receptors, sequence (P21452 whole entry): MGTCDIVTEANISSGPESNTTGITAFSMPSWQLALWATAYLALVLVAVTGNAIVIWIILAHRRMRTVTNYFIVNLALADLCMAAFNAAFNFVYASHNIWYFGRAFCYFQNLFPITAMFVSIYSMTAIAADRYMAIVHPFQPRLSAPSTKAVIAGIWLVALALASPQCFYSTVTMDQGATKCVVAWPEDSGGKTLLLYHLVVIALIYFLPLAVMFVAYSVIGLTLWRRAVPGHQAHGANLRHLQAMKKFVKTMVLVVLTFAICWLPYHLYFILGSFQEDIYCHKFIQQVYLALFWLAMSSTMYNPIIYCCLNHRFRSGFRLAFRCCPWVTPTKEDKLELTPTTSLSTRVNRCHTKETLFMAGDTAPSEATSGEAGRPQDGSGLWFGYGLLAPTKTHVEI

SMILES: Cc1ccccc1-c1cc(N2CCOCC2)ncc1N(C)C(=O)C(C)(C)c1cc(C(F)(F)F)cc(C(F)(F)F)c1 [compound of formula I, 2-(3,5-Bis-trifluoromethyl-phenyl)-N-methyl-N-(6-morpholin-4-yl-4-o-tolyl-pyridin-3-yl)-isobutyramide]
- slope of the Schild regression [1]: 1.1
- Kb ([1]; Schild plot, read-out: antagonist affinity (pA2) (converted)): 1.26 nM
- total plasma concentration required to completely block the foot-tapping behaviour ([2]; Gerbils): 10 ng/mL
- functional half life ([2]; Gerbils, persistence of antagonism of foot-tapping): 8 h
- ED50 ([2]; Meriones unguiculatus, po, read-out: dose calculated to inhibit 50 % of the foot-tapping behaviour): 0.2 mg/kg
- emesis induced by all emetogens (emesis induced in Ferets; 0.3 mg/kg p.o. 2 hours before emetogen (apomorphine, morphine, ipecacuanha, cisplatin, CuSO4)): completely blocked
- ED50 (emesis induced in Ferets; Mustela putorius, po, apomorphine-induced emesis): 0.1 mg/kg
- ED50 [3]: 0.2 mg/kg
- selectivity for the NK1 receptor compared to NK2 receptors (NK2 receptors): over 2 orders of magnitude
- selectivity for the NK1 receptor compared to NK3 receptors (NK3 receptors): over 2 orders of magnitude
- selectivity for the NK1 receptor compared to over 50 other binding sites: over 2 orders of magnitude
